This note sets out measurements from patent EP1144412B1, “IMMUNOSUPPRESSIVE EFFECTS OF PTERIDINE DERIVATIVES” (4 AZA Bioscience nv, priority 1998, dated 2000).

Experiment [1] concerns Highly purified T cells. As to the kind of experiment: T cell proliferation induced by anti-CD3 mAb + PMA (BrdU incorporation). In kind it is cell-based, Human. The following applies: Homo sapiens, T-cell. The text has this: (§1) Various models may be used for testing an immunosuppressive effect. In vivo, for example, different transplantation models are available. They are strongly influenced by different immunogenicities, depending on the donor and recipient species used and depending on the nature of the transplanted organ. The survival time of transplanted organs can thus be used to measure the suppression of the immune response. In vitro, there exist also various models. The most used are lymphocyte activation tests. Usually activation is measured via lymphocyte proliferation. Inhibition of proliferation thus always means immunosuppression under the experimental conditions applied. There exist different stimuli for lymphocyte activation: • coculture of lymphocytes of […] (MLR = mixed lymphocyte reaction): lymphocytes expressing different minor and major antigens of the HLA-DR type (= alloantigens) activate each other non-specifically. • CD3 assay: here there is an activation of the T-lymphocytes via an exogenously added antibody (OKT3). This antibody reacts against the CD3 molecule located on the lymphocyte membrane. This molecule has a costimulatory function. […] This molecule is also located on the lymphocyte membrane, and delivers strong costimulatory signals.
(§2) T cells were purified by removing non-T cells. Briefly,monocytes were removed by cold agglutination. The resulting lymphoid cells were further purified by a cell enrichment immunocolumn [Cellect Human T (Biotex, Edmonton, Alberta, Canada)] by a process of negative selection.
(§3) Measurements of T cell proliferations induced by anti-CD3 mAb + PMA or anti-CD28 mAb + PMA
(§4) Highly purified T cells (10^6/ml) were stimulated by immobilized anti-CD3 àr anti-CD28 mAb in the presence of PMA. Anti-CD3 mAb (CLB-CD3; CLB, Amsterdam, The Netherlands) were fixed on the 96-microwell plates by incubating the wells with 50 µl of mAb solution (1/800 dilution in culture medium). Anti-CD28 mAb (CLB-CD28; CLB, Amsterdam, The Netherlands) 50 µl (1/650 dilution in culture medium) was added directly to the wells. Further, 20 µl PMA (Sigma, St. Louis, MO, USA) solution (final concentration: 0.5 ng/ml) was added. Subsequently, 20 µl of immunosuppressants were added by serial dilution in triplicate wells. Finally 100 µl of the T cell suspension (10^6/ml) was added. After 48-hour incubation at 37EC in 5% CO2 20 Φl BrdU (100 ΦM solution) (Cell Proliferation Elisa, Boehringer-Mannheim Belgium) was added to each well. After a further overnight incubation the T cell proliferation was measured using a colorimetric immunoassay for qualification of cell proliferation based on measurements of the incorporation of BrdU during DNAsynthesis. The optical density (OD) was measured by a Behring EL311 plate reader at 450 nm (reference wavelength: 690 nm). The percent suppression of proliferation by drugs was counted using the formula: Per cent inhibition =((OD + drugs) - (OD Cult. Med.))/((OD - drugs) - (OD Cult. Med.))x 100 [formula]
(Uptake of a labelled nucleoside into DNA is a usual measure of proliferation.)

The test system of experiment [2] is Highly purified T cells. Kind of experiment: T cell proliferation induced by anti-CD28 mAb + PMA (BrdU incorporation). The following applies: Homo sapiens, T-cell. In kind it is cell-based, Human.
Excerpt: as §1, §2, §3, §4

Experiment [3] deals with Peripheral blood mononuclear cells (PBMC). Kind of experiment: Mixed lymphocyte reaction (MLR), [3H]-thymidine incorporation. In kind it is cell-based. The following applies: Homo sapiens.
Excerpt: as §1
Peripheral blood mononuclear cells (PBMC) were isolated from heparinized peripheral blood by density gradient centrifugation over Lymphoprep (Nycomed, Maorstua, Norway). Allogeneic PBMC or EBV-transformed human B cells [RPMI1788 (ATCC name CCL156)] which strongly express B7-1 and B7-2 were used as stimulator cells after irradiation with 30 Gy. MLR was performed in triplicate wells. After 5 days incubation at 37EC, 1 µCi [^3H]-thymidine was added to each cup. After a further 16 hours incubation, cells were harvested and counted in a β-counter.
The percent suppression of proliferation by drugs was counted using the formula Percent inhibition =((cpm + drugs) - cpm Cult. Med)/((cpm - drugs) - cpm Cult. Med.)x 100 [formula]

The mark [4] stands for this setting: Table II, read-out: IC50 in µM of pteridine derivative ACD3.
[5] abbreviates: Table II, read-out: IC50 in µM of pteridine derivative aCD28.
[6] abbreviates: untitled structure table, no unit printed there, same values in Table II as IC50 in µM, read-out: aCD28.
The mark [7] stands for this setting: Table II, read-out: IC50 in µM of pteridine derivative MLR.
Where [8] appears, read: untitled structure table, no unit printed there, same values in Table II as IC50 in µM, read-out: MLR.
[9] abbreviates: untitled structure table, no unit printed there, same values in Table II as IC50 in µM, read-out: aCD3.
[10] abbreviates: untitled structure table, IC50 subranges, read-out: aCD3.
Where [11] appears, read: untitled structure table, IC50 subranges, read-out: aCD28.
Where [12] appears, read: untitled structure table, IC50 subranges, read-out: MLR.
[13] abbreviates: Table IV, known pteridine derivatives, IC50 subranges, read-out: aCD3.
[14] abbreviates: Table IV, known pteridine derivatives, IC50 subranges, read-out: aCD28.
[15] abbreviates: Table IV, known pteridine derivatives, IC50 subranges, read-out: MLR.

The structures appear in SMILES notation. Where two headings read alike, the source gives them in different places.

As for `CCCN(CCC)c1nc(N)nc2ncc(-c3ccccc3)nc12` [Compound 29, 2-amino-4-dipropylamino-6-phenylpteridine], the IC50 came to 25 µM with Highly purified T cells [1] (setting [4]); 25 µM in the experiment with Highly purified T cells [2] (setting [5]); 25 µM in the experiment with Highly purified T cells [2] (setting [6]); 15 µM in experiment [3] (setting [7]); 15 µM in experiment [3] (setting [8]).
As for `CN1CCN(c2nc(N)nc3ncc(-c4ccc(Cl)cc4)nc23)CC1` [Compound 42, 2-amino-4-N-methylpiperazino-6-(4-chlorophenyl)pteridine], the IC50 in the experiment on Highly purified T cells [1] (setting [4]) worked out at 11 µM; in the experiment on Highly purified T cells [1] (setting [9]), 11 µM; in the experiment with Highly purified T cells [2] (setting [5]), 4.2 µM; in the experiment with Highly purified T cells [2] (setting [6]) it was 4.2 µM; in experiment [3] (setting [7]), 4.8 µM; in experiment [3] (setting [8]), 4.8 µM.
With `CCCNc1nc(N)nc2ncc(-c3ccccc3)nc12` [Compound 62, 2-amino-4-propylamino-6-phenylpteridine], the IC50 with Highly purified T cells [1] (setting [10]) fell in the range of 16 to 150 µM; in the experiment on Highly purified T cells [2] (setting [11]), 16 to 150 µM; in experiment [3] (setting [12]) it was 1 to 15 µM.
As to `COc1ccc(-c2cnc3nc(N)nc(N4CCNCC4)c3n2)cc1OC` [Compound 49, 2-amino-4-piperazino-6-(3,4-dimethoxyphenyl)pteridine], the IC50 with Highly purified T cells [1] (setting [4]) came out at 14.8 µM; with Highly purified T cells [1] (setting [9]) it was 14.8 µM; with Highly purified T cells [2] (setting [5]), 4.5 µM; in the experiment with Highly purified T cells [2] (setting [6]) it was 4.5 µM; in experiment [3] (setting [7]) it was 2.8 µM; in experiment [3] (setting [8]), 2.8 µM.
Take `CSCc1cnc2nc(N)nc(N)c2n1` [CH2 S CH3, reference compound]: the IC50 (with Highly purified T cells [1] (setting [13]); with Highly purified T cells [2] (setting [14]); in experiment [3] (setting [15])) was greater than 151 µM each time.
Turning to `Nc1nc(N2CCCCC2)c2nc(-c3ccccc3)cnc2n1` [Compound 37, 2-amino-4-piperidino-6-phenylpteridine], the IC50 was 80 µM in the experiment with Highly purified T cells [1] (setting [4]); 80 µM with Highly purified T cells [1] (setting [9]); 20 µM in the experiment with Highly purified T cells [2] (setting [5]); 20 µM in the experiment on Highly purified T cells [2] (setting [6]); 15 µM in experiment [3] (setting [7]); 15 µM in experiment [3] (setting [8]).
`Nc1nc(N(Cc2ccccc2)Cc2ccccc2)c2nc(-c3ccc(Cl)cc3)cnc2n1` [Compound 26, 2-amino-dibenzylamino-6-(4-chlorophenyl) pteridine]: the IC50 in the experiment on Highly purified T cells [1] (setting [4]) was 75 µM; in the experiment on Highly purified T cells [1] (setting [9]) it was 75 µM; with Highly purified T cells [2] (setting [5]) it was 20 µM; with Highly purified T cells [2] (setting [6]), 20 µM; in experiment [3] (setting [7]) it was 100 µM; in experiment [3] (setting [8]), 100 µM.
Regarding `COc1cc(-c2cnc3nc(N)nc(N(Cc4ccccc4)Cc4ccccc4)c3n2)cc(OC)c1OC` [Compound 50, 2-amino-4-dibenzylamino-6-(3,4,5-trimethoxyphenyl)pteridine], the IC50 (in the experiment on Highly purified T cells [1] (setting [10]); with Highly purified T cells [2] (setting [11]); in experiment [3] (setting [12])) was 1 to 15 µM in each case.
As to `CN1CCN(c2nc(N)nc3ncc(-c4ccccc4)nc23)CC1` [Compound 41, 2-amino-4-N-methylpiperazino-6-phenylpteridine], the IC50 with Highly purified T cells [1] (setting [4]) stood at 40 µM; in the experiment on Highly purified T cells [1] (setting [9]), 40 µM; in the experiment on Highly purified T cells [2] (setting [5]), 25 µM; with Highly purified T cells [2] (setting [6]) it was 25 µM; in experiment [3] (setting [7]), 15 µM; in experiment [3] (setting [8]), 15 µM.
For the molecule `COc1ccc(-c2cnc3nc(NCCO)nc(N)c3n2)cc1` [Compound 12, 2-hydroxyethylamino-4-amino-6-(4-methoxyphenyl)pteridine], the IC50 in the experiment on Highly purified T cells [1] (setting [4]) was greater than 200 µM; with Highly purified T cells [1] (setting [9]) it was greater than 200 µM; in the experiment with Highly purified T cells [2] (setting [5]), 160 µM; in the experiment on Highly purified T cells [2] (setting [6]) it was 160 µM; in experiment [3] (setting [7]), greater than 200 µM; in experiment [3] (setting [8]) it was greater than 200 µM.
As for `Nc1nc(N2CCOCC2)c2nc(-c3ccc(Cl)cc3)cnc2n1` [Compound 34, 2-amino-4-morpholino-6-(4-chlorophenyl)pteridine], the IC50 amounted to 20 µM in the experiment on Highly purified T cells [1] (setting [4]); 20 µM in the experiment on Highly purified T cells [1] (setting [9]); 20 µM in the experiment with Highly purified T cells [2] (setting [5]); 20 µM in the experiment on Highly purified T cells [2] (setting [6]); 12 µM in experiment [3] (setting [7]); 12 µM in experiment [3] (setting [8]).
Take `Nc1nc(N(Cc2ccccc2)Cc2ccccc2)c2nc(-c3ccccc3)cnc2n1` [Compound 25, 2-amino-4-dibenzylamino-6-phenyl pteridine]: the IC50 stood at 25 µM with Highly purified T cells [1] (setting [4]); 25 µM in the experiment with Highly purified T cells [1] (setting [9]); 25 µM in the experiment with Highly purified T cells [2] (setting [5]); 25 µM with Highly purified T cells [2] (setting [6]); 75 µM in experiment [3] (setting [7]); 75 µM in experiment [3] (setting [8]).
`CCOc1nc(N)nc2ncc(-c3ccc(OC)c(OC)c3)nc12` [Compound 66, 2-amino-4-ethoxy-6-(3,4-dimethoxyphenyl)pteridine]: the IC50 with Highly purified T cells [1] (setting [10]) and in the experiment with Highly purified T cells [2] (setting [11]) was less than 1 µM each time.
As for `COCCOCc1cnc2nc(N)nc(N)c2n1` [Compound 17, 2,4-diamino-6-methoxyethoxymethyl pteridine], the IC50 was 180 µM in the experiment with Highly purified T cells [1] (setting [4]); 180 µM with Highly purified T cells [1] (setting [9]); 18 µM in the experiment on Highly purified T cells [2] (setting [5]); 18 µM in the experiment with Highly purified T cells [2] (setting [6]); greater than 200 µM in experiment [3] (setting [7]); greater than 200 µM in experiment [3] (setting [8]).
Regarding `CCN(CC)c1nc(N)nc2ncc(-c3ccc(OC)cc3)nc12` [Compound 23, 2-amino-4-diethylamino-6-(4-methoxyphenyl) pteridine], the IC50 in the experiment on Highly purified T cells [1] (setting [4]) is 20 µM; in the experiment on Highly purified T cells [1] (setting [9]), 20 µM; with Highly purified T cells [2] (setting [5]) it was 20 µM; with Highly purified T cells [2] (setting [6]), 20 µM; in experiment [3] (setting [7]) it was 12 µM; in experiment [3] (setting [8]) it was 12 µM.
Turning to `CN(C)Cc1cnc2nc(N)[nH]c(=O)c2n1` [CH2N(CH3)2, reference compound], the IC50 (with Highly purified T cells [1] (setting [13]); in the experiment on Highly purified T cells [2] (setting [14]); in experiment [3] (setting [15])) was greater than 151 µM each time.
As for `COc1ccc(-c2cnc3nc(N)nc(N4CCN(C)CC4)c3n2)cc1` [Compound 43, 2-amino-4-N-methylpiperazino-6-(4-methoxyphenyl)pteridine], the IC50 in the experiment on Highly purified T cells [1] (setting [4]) stood at 11.7 µM; in the experiment on Highly purified T cells [1] (setting [9]), 11.7 µM; with Highly purified T cells [2] (setting [5]), 4.2 µM; with Highly purified T cells [2] (setting [6]), 4.2 µM; in experiment [3] (setting [7]) it was 12.3 µM; in experiment [3] (setting [8]), 12.3 µM.
In the case of `COc1ccc(-c2cnc3nc(N)nc(N(C)C)c3n2)cc1OC` [Compound 59, 2-amino-4-dimethylamino-6-(3,4-dimethoxyphenyl)pteridine], the IC50 was 1 to 15 µM in the experiment on Highly purified T cells [1] (setting [10]), 1 to 15 µM in the experiment on Highly purified T cells [2] (setting [11]) and less than 1 µM in experiment [3] (setting [12]).
For the molecule `O=c1[nH]cc(F)c(=O)[nH]1` [Compound 5-FU, 5-Fluoro-uracil, reference compound], the IC50 was determined as 50 µM in the experiment on Highly purified T cells [1] (Table III, comparison immunosuppressants, read-out: IC50 aCD3) and 17 µM in the experiment on Highly purified T cells [2] (Table III, comparison immunosuppressants, read-out: IC50 aCD28).
As for `CCCNc1nc(N)nc2ncc(-c3ccc(OC)c(OC)c3)nc12` [Compound 63, 2-amino-4-propylamino-6-(3,4-dimethoxyphenyl)pteridine], the IC50 in experiment [3] (setting [12]) is less than 1 µM.
